Laboratory results as given in patent US20220206013A1, “CYSTIC FIBROSIS URINE TEST” (Aarhus Universitet, priority 2019, published 2022).

Key:
CFTR = CFTR (Homo sapiens, UniProt P13569); experiment: clinical
Protocol: Twelve healthy adult volunteers aged 22 to 59 years of both genders were tested. The volunteers were healthy and without any known CFTR protein mutations.
In addition, the venous acid-base status was checked.
The subjects then drank 200 mL of tap water. In addition, the venous acid-base status was checked.
The subjects then drank 200 mL of tap water.

[1] = tested on: CFTR wild type, CFTR knock out and pendrin knock-out mice; details: WT mice; gavage 60 μmoles NaHCO3/25 g bodyweight; cumulative sample after 3 hours
Protocol: The experiments were performed in littermate mice bred from heterozygotes. Mice of both genders were used at an approximate age of 2 to 4 months.
The Pendrin KO mouse was produced by insertion of a neo-cassette replacing exon 8 in the Scl26a4 gene, leading to loss of pendrin expression as described in (Everett et al. 2001). It was purchased from The Jackson Laboratory, JAX stock #018424.
The global CFTR (CFTRG) KO mouse (CFTR S489X-; FABP-hCFTR) was purchased from The Jackson Laboratory, JAX stock #002364. This is a transgenic global CFTR KO mouse strain with expression of human CFTR (hCFTR) under the promoter activity of rat fatty acid binding protein 2, intestinal (Fabp2) promoter, which corrects the otherwise lethal intestinal phenotype in CFTR KO mice (Zhou et al. 1994).
Awake mice (animals as described under section A.) were manually restrained and a gavage needle was inserted into their stomach. […] Mice were then placed in metabolic cages and their urine collected for further measurement.
Urine was sampled and accumulated for 3 hr before measurement.

[2] = molecular target: CFTR (homozygote mutation ΔF508) (Homo sapiens, UniProt P13569, DEL508-508); experiment: CF urine test (oral bicarbonate gastric load) in adult CF patients, before and after CFTR modulator drug
Sequence of CFTR (homozygote mutation ΔF508) (P13569 with tags, fused parts or gaps DEL508-508): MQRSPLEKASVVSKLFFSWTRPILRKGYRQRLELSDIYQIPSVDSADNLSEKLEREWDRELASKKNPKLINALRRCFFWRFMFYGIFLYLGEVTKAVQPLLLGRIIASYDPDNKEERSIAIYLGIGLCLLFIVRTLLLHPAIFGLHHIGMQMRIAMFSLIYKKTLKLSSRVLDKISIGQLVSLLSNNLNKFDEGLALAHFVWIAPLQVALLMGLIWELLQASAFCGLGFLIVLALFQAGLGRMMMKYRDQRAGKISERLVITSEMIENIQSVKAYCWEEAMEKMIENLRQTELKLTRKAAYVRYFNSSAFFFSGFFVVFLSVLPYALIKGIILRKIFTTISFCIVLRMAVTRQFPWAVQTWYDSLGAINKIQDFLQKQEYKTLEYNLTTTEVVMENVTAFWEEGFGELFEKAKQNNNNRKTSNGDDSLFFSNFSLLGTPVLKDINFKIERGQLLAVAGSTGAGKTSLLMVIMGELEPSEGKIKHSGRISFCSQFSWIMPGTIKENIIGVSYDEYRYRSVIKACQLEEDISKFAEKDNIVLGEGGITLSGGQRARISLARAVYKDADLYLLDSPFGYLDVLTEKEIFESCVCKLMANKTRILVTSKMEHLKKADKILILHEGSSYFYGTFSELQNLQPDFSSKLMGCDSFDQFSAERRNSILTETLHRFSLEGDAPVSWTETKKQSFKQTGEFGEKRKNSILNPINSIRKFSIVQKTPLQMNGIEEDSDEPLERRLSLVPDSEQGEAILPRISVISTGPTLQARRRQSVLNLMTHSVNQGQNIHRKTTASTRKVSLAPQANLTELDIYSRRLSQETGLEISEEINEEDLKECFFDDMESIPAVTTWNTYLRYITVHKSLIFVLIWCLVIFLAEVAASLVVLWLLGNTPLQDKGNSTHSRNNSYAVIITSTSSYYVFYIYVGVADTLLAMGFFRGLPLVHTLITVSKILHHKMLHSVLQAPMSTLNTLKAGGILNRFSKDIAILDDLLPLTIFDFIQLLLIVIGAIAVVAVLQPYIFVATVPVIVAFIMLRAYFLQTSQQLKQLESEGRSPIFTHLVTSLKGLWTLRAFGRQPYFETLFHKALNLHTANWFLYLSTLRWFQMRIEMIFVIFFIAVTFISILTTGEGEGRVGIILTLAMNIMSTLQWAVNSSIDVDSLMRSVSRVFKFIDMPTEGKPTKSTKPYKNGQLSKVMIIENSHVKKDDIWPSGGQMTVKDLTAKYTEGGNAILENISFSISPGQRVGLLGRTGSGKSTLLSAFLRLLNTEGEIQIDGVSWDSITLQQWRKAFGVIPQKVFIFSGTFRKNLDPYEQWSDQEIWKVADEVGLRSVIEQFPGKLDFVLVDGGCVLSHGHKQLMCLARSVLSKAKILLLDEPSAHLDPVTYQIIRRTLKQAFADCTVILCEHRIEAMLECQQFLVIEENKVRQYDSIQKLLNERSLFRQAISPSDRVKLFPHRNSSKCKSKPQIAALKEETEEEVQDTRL
Protocol: After 1 hr. urine samples were collected and the participant drank 200 ml of tap water. One hour later, urine samples were collected again and the participant drank further 200 ml of tap water. After three hours from the baseline the final urine sample were collected and the participants drank another 200 ml of tap water.
Nine adult CF patients aged 19 to 45 of both genders with the homozygote mutation ΔF508 were signed up for this test.
Three of the adult CF patients were treated with Orkambi® (400 mg lumacaftor/200 mg ivacaftor twice a day) for four weeks before testing the CF patients for a second time. These included patients of both genders between the age of 19 and 45.
Six of the adult CF patients were treated with Symkevi® (100 mg tezacaftor and 150 mg ivacaftor in the morning and 150 mg ivacaftor in the evening) for four weeks before testing the CF patients for a second time. These included patients of both genders between the age of 20 and 40.
Five ml of urine were given into a 250 ml glass flask.
A two-tailed paired t-test was used to test for significance. A p-value≤0.5 was chosen to represent significance.
At t=1 hr, the subjects were to void the first sample. […] The subjects then drank 200 mL of tap water. In addition, the venous acid-base status was checked.
At t=2 hrs, the subjects were to void the second sample. […] The subjects then drank 200 mL of tap water.
At t=3 hrs, the subjects were to void the third sample. […] The subjects then drank 200 mL of tap water.

Pendrin WT and KO mice [3] = experiment: Secretin-induced urine alkalisation and urine HCO3− excretion in anaesthetized pendrin WT/KO mice; type: in vivo, mouse
Protocol: (§1) Induction of anaesthesia was performed with i.p. injection of […] of a ketamine-xylazine mix (10 mg/ml and 1 mg/ml). An i.v. access was obtained by cannulation of one tail vein and the animals were kept in anaesthesia by a continuous rate infusion (CRI) corresponding to half of the induction dose pr. hour. Mice were infused with a solution containing 145 mM NaCl at pH 7.4 with a perfusion rate of 0.1 ml h^−1 via a syringe pump (Model 33 Twin syringe pump, Harvard Apparatus, USA).
(§2) Bladder catheterization was introduced and urine was collected every 5 minutes. Urinary pH was measured continuously throughout the experiment by placement of a micro pH electrode (pH-200, Unisense, Aarhus, DK) in the outflow of the catheter and the reference electrode was placed into the suprapubic operation wound (see FIG. 7A). Following a 30-min. control period, mice were injected intraperitoneally with either secretin (10 μg/25 g BW) or saline.
(§3) The urine was collected and pooled for 30 minutes allowing measurement of mean [HCO3^−] in the time periods 0-30, 30-60 and 60-90 after starting the experiment. In experiments with too low urine output, urine was pooled to allow analysis of [HCO3^−] before and after secretin application. Measurements were performed by a Corning 960 analyser (Savory et al. 1978) and calibrated to small volume samples of 50 μl or alternatively by a custom built infrared CO2-sensor based system for smaller volume samples (Trepiccione et al. 2017) (10-40 μl).
(§4) All values are presented as mean values ±standard error of mean (SEM). Due to a low number of observations in each series, n=7 in most, we were not able to determine whether the data followed a Gaussian distribution. Therefore, two-tailed Wilcoxon matched pairs signed rank test, in paired data, and two-tailed Mann-Whitney test, in unpaired data, were performed to test for significance.

[4] = tested on: global CFTR WT and KO mice; experiment: Secretin-induced urine alkalisation and urine HCO3− excretion in global CFTR WT/KO mice; type: in vivo, mouse
Protocol: as §1, §2, §3, §4

[5] = tested on: tubule specific CFTR (CFTR-TS) WT and KO mice; experiment: Secretin-induced urine alkalisation and urine HCO3− excretion in tubule specific CFTR WT/KO mice; type: in vivo, mouse
Description: The Renal tubule specific CFTR (CFTRTS) KO mouse was produced in the laboratory of Dr. Kunzelmann and Dr. Schreiber in Regensburg/Germany and performed in compliance with the guidelines for the welfare of experimental animals issued by the Federal Government of Germany. C57BL6/J CFTR fl10 mice (Hodges et al. 2008) were bred in a C57Bl/6J background generated by the Cre/loxP-system with tissue specific Cre-recombinase expression from the Pax8 locus (Kos 2004; Bouchard et al. 2004).
as §1, §2, §3, §4

Pendrin WT and KO mice [6] = experiment: Secretin-induced urine alkalisation and urine HCO3− excretion in anaesthetized pendrin WT/KO mice; type: in vivo, mouse; remark: listed apart in the source
[7] = both, human, in vivo, po, 79 mg/kg
[8] = 6 CF patients, pre-symkevi, oral bicarbonate load

Sequence of CFTR (P13569 whole entry): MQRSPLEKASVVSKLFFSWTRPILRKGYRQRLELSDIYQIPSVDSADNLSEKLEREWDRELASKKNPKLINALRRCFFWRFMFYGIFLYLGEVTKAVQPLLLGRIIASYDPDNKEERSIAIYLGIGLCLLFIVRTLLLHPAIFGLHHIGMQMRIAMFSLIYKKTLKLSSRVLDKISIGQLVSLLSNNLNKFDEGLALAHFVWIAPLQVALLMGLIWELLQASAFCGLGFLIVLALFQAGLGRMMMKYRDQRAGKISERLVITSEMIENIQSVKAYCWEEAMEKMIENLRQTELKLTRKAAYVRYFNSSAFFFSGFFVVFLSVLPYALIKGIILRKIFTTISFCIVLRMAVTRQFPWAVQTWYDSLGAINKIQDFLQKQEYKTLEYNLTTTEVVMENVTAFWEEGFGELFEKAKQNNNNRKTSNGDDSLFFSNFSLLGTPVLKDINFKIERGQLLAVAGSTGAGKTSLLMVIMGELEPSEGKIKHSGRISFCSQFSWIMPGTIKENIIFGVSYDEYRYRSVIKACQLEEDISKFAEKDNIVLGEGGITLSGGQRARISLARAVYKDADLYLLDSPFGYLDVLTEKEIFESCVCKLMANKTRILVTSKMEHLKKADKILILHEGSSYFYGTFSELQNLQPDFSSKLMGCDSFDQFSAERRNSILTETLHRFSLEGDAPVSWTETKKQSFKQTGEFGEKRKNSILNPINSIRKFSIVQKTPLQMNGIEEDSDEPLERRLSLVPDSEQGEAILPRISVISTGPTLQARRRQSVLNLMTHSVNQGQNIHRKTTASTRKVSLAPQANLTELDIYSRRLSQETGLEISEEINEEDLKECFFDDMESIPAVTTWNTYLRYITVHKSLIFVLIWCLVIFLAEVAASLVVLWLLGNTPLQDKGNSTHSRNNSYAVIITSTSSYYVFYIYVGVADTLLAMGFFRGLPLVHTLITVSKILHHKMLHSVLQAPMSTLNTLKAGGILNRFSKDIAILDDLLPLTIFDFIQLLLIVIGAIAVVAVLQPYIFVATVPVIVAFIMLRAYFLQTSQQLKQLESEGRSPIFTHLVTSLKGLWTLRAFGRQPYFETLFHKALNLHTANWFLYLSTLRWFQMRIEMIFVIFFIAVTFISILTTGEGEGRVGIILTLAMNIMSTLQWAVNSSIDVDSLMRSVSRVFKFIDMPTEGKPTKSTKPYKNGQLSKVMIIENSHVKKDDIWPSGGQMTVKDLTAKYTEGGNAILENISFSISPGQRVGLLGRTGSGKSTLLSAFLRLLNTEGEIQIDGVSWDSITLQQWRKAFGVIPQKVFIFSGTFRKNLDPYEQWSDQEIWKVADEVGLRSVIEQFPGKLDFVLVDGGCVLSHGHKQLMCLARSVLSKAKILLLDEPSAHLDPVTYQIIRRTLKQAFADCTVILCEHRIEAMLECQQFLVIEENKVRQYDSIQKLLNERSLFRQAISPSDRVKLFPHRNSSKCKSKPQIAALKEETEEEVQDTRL

Compound: O=C(O)O [bicarbonate, NaHCO3]
- Cmax (CFTR; [7]): 45000 to 65000 µM
- Tmax (CFTR; [7]): 2 h
- AUC0-3 of excreted bicarbonate (CFTR; healthy controls, oral 79 mg/kg BW NaHCO3, FIG. 5E): 85-123 mmol bicarbonate *t/L
- urine bicarbonate concentration and urine pH [1]: found to increase
- AUC0-3 of excreted bicarbonate [2, 8]: 22-45 mmol bicarbonate*t/L
- peak value of urine bicarbonate (t=2 hrs) [2, 8]: 11 to 28 mM
- AUC0-3 of excreted bicarbonate ([2]; CF patients before treatment with Orkambi, oral bicarbonate load): 14-58 mmol bicarbonate *t/L
- Cmax [2, 7]: 14000 to 28000 µM
- Tmax ([2]; both, human, in vivo, po, 79 mg/kg BW): 2 h

Compound: secretin
- pHu alkalisation (Pendrin WT and KO mice [3]; pendrin KO mice, 10 μg/25 g BW i.p., FIG. 9B): no significant pHu alkalisations
- urinary HCO3− excretion vs vehicle (Pendrin WT and KO mice [3]; pendrin KO mice, data not shown): No differences
- urinary [HCO3−] vs vehicle (Pendrin WT and KO mice [3]; pendrin KO mice, n=7, FIG. 9D): No differences
- late pHu effect (Pendrin WT and KO mice [3]; pendrin KO mice, starting some 20 minutes post-injection): urinary acidification
- peak mean urinary alkalisation (Pendrin WT and KO mice [3]; pendrin WT mice, 10 μg/25 g BW i.p., n=7, FIG. 9A): 0.397±0.1 pH units
- peak pHu increase (Pendrin WT and KO mice [3]; pendrin WT mice, 10 μg/25 g BW secretin i.p., FIG. 8C): ~0.38 units
- urinary [HCO3−] (Pendrin WT and KO mice [3]; pendrin WT mice, 60 minutes following injection, vehicle 0.1697 ±0.1 mM, FIG. 9C): 1.08 ± 0.3 mM
- urine HCO3− excretion rate (Pendrin WT and KO mice [3]; pendrin WT mice, 60 minutes post secretin injection, vehicle 1.18±0.57): 5.61±2.06 nmol/h/g BW
- HCO3− excretion rate and urine [HCO3−] vs starting or control ([4]; global CFTR KO mice, at any point during the experiment, FIG. 10D): No significant differences
- peak difference of pHu vs pH prior to treatment ([4]; global CFTR KO mice, peak 20 min post secretin, n=7, not differing from vehicle treated KO mice): 0.13 pH units
- peak mean urinary alkalisation ([4]; global CFTR WT mice, 10 μg/25 g BW i.p., n=6, FIG. 10A): 0.53±0.24 pH units
- urinary [HCO3−] increase vs control group (Δ30 minutes) ([4]; global CFTR WT mice, FIG. 10C): 3.02 ± 1.06 mM
- ΔHCO3− excretion rate vs control ([4]; global CFTR WT mice, after 60 min, not reaching significance (p=0.09)): 5.55±3.25 nmol/h/g BW
- pHu effect vs control experiments ([5]; CFTR-TS KO mice, FIG. 11B): no significant effect
- urine [HCO3−] and urine HCO3− excretion rate ([5]; CFTRTS KO mice): No significant secretin-induced differences
- peak mean urinary alkalisation ([5]; tubule specific CFTR WT mice, 10 μg/25 g BW i.p., n=7, FIG. 11A): 0.6518±0.11
- urine HCO3− excretion rate, mean difference vs baseline ([5]; tubule specific CFTR WT mice, 60 minutes after secretin treatment, data not shown): 5.623 ± 2.2 nmol/h/kg
- urine [HCO3−] change after secretin administration ([5]; tubule specific CFTR WT mice, highest in first 30 minutes): pronounced increase
- pHu change (Pendrin WT and KO mice [6]; dose of 0.1 μg i.p.): significant increase
- pHu change with dose (Pendrin WT and KO mice [6]; doses of 1, 5 and 10 μg i.p.): increasing pHu alkalisations
